Among the data in patent US4595688A, “Hexahydropyrrolo[2,1-a]isoquinoline derivatives and antidepressant use thereof” (priority 1984, dated 1986) are ED50 values, retold here.

This assay deals with depressant effects of tetrabenazine (TBZ). Briefly: tetrabenazine (TBZ) antagonism assay in mice: exploratory activity (EA) and reversal of ptosis (Pt). The format is in vivo. The following applies: Mus musculus, ip, mice, i.p., compound 30 minutes prior to 32 mg/kg i.p. TBZ. The method, then: The utility of the novel compounds of this patent is based on a standard test for antidepressant agents involving antagonism of the depressant effects of tetrabenazine (TBZ). This is the "classical" tetrabenazine antagonism assay described in U.S. Pat. No. 3,787,577. In this test, mice are injected with a test compound 30 minutes prior to the injection of 32 mg/kg i.p. of TBZ, a drug which decreases normal exploratory activity and induces ptosis. After 30 minutes, the mice are tested for two parameters: the presence of normal exploratory activity (EA) and reversal of ptosis (Pt). A control group of mice is given only 32 mg/kg i.p. of TBZ. The biological activity of the novel compounds of this invention may be understood by some representative, nonlimiting examples, presented in Tables I and II.
Tables I lists the compounds tested by a compound number, structural formula, HX or acid addition salt form in which the compound was tested, test data, and internal code number (McN No.). Table II names the various Table I compounds.
*ED50 given in mg/kg for each parameter (except for percent
inhibition at a certain dose in mg/kg, given for four examples: XLIV, XLV

[1] abbreviates: normal exploratory activity, read-out: TBZ ED50, EA (exploratory activity).
The mark [2] stands for this setting: reversal of ptosis, read-out: TBZ ED50, Pt (reversal of ptosis).

The structures appear in SMILES notation. Read-outs that look alike come from different tables or passages of the source.

`Oc1ccc([C@@H]2CN3CCC[C@@H]3c3ccccc32)cc1O` (relative stereo) [XXXV, 4-(1,2,3,5,6,10bβ-Hexahydropyrrolo[2,1-a]isoguinolin-6α-yl)benzene-1,2-diol]: the median effective dose (ED50) under setting [1] was found to be 1.4 mg/kg and the ED50 under setting [2] is 0.13 mg/kg.

Take `Oc1cc2c(cc1O)[C@H]1CCCN1C[C@H]2c1ccccc1` (relative stereo) [XXVI, [6α,10bβ]-1,2,3,5,6,10b-Hexahydro-8,9-dihydroxy-6-phenylpyrrolo[2,1-a]isoquinoline]: the ED50 runs as follows: under setting [1], 0.87 mg/kg; under setting [2], 0.33 mg/kg.
